Test results reported in patent publication US10329262B2, “Quinazolinone antibiotics” (priority 2013, dated 2019).
Where two headings read alike, the source gives them in different places.

Assays:
[1] = tested on: S. aureus VRS2; test: MIC, CLSI broth microdilution, S. aureus VRS2; assay type: cell-based, Staphylococcus aureus
Experimental: (§1) MICs were evaluated following the CLSI microdilution method in BBL™ Mueller-Hinton II broth (Wikler et al., Clinical Laboratory Standards Institute Document M7-A7, 29 (2009)). Briefly, two-fold serial dilutions of compound were prepared in triplicate in 96-well plates and inoculated with 5×10^5 cfu/mL of the bacterial suspension. Plates were incubated at 37° C. for 16-20 hours.

[2] = tested on: S. aureus NRS70; test: MIC, broth microdilution, S. aureus NRS70; assay type: cell-based, Staphylococcus aureus; conditions: for MIC: Staphylococcus aureus
Experimental: as §1

[3] = Plasma protein binding, rapid equilibrium dialysis, mouse; assay type: in vitro ADME; conditions: pH 7.4, mice, 6 h dialysis
Experimental: Aliquots from both chambers were quenched with 1:2 v/v acetonitrile containing an internal standard. The samples were concentrated to dryness on a miVac concentrator and the residue resuspended in 50:50 acetonitrile/water. Samples were analyzed by reverse-phase ultraperformance liquid chromatography (UPLC) with UV/Vis detection. Plasma protein binding of quinazolinone 2 was 98.0±0.04% in mice and 96.5±0.70% in humans.

[4] = target: T1, PBP2a (Staphylococcus aureus, UniProt Q53707); test: Bocillin FL competition assay, purified recombinant PBP2a; assay type: binding, S. aureus
T1 construct: PBP2a was purified using a previously described protocol (Fuda et al., J. Biol. Chem. 279, 40802-40806 (2004)); made in house
T1 sequence (Q53707 entry or part of it): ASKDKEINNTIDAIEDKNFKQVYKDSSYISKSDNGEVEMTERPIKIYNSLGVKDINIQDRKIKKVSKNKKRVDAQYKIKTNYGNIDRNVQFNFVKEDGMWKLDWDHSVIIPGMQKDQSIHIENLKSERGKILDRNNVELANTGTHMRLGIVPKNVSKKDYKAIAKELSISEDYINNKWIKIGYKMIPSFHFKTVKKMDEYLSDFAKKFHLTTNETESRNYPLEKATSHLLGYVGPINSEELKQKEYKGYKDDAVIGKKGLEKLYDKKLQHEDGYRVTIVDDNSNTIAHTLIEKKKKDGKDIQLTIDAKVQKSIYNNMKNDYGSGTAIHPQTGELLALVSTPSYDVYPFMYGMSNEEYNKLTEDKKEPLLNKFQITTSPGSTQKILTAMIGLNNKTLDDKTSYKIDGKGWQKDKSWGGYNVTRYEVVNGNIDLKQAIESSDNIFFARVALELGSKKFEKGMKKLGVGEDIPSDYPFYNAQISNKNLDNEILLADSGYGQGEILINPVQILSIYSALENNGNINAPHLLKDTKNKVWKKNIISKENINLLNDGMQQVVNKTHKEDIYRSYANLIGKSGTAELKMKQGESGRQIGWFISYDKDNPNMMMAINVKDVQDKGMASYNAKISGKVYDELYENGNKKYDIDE
Excerpt: We next explored if it would inhibit purified recombinant PBP2a by a competition assay with Bocillin FL, a fluorescent penicillin reporter reagent. We purified PBP2a for this study using a previously described protocol from the laboratory of Prof. Mobashery (Fuda et al., J. Biol. Chem. 2004, 279, 40802-40806). This inhibition assay for PBPs has the limitation in that Bocillin FL is a covalent modifier of the active site of PBPs and the equilibrium is inexorably in favor of the irreversible acylation of the active-site serine by the reporter molecule. As such, the degree of inhibition by the non-covalent inhibitor (e.g., 2) will be underestimated.
This inhibition assay for PBPs has the limitation in that Bocillin FL is a covalent modifier of the active site of PBPs and the equilibrium is inexorably in favor of the irreversible acylation of the active-site serine by the reporter molecule. As such, the degree of inhibition by the non-covalent inhibitor (e.g., 2) will be underestimated. This is what was seen.
The Bocillin FL competition assays were performed with purified PBP2a and membrane extracts. […] Samples were centrifuged, loaded to SDS-PAGE, the gels were visualized immediately using a Storm840 Scanner, and fluorescence was quantified using ImageQuant software. IC50 values were calculated using GraphPad prism 5, using the previously published equation.

[5] = tested on: S. aureus NRS123; test: MIC, broth microdilution, S. aureus NRS123; assay type: cell-based; conditions: Staphylococcus aureus
Experimental: as §1

[6] = tested on: T7 transcription; test: In vitro transcription assay (TranscriptAid T7 kit); assay type: biochemical
Excerpt: For in vitro translation, the E. coli S30 Extract System for Circular DNA was used to set up the reactions using plasmid pCP19 containing the lacZ gene for β-galactosidase. Reaction mixtures were supplemented with two-fold dilutions of antibiotic 2 and the β-Galactosidase Enzyme Assay System with Reporter Lysis Buffer was used to quantify the amount of β-galactosidase translated by measuring absorbance at 420 nm. For in vitro transcription, a TranscriptAid T7 High Yield Transcription kit was used with a pET24a/dacB DNA construct under the T7 promoter. The purified plasmid was linearized using the restriction endonuclease XhoI and then purified according to the manufacturer's instructions. A series of samples were prepared and supplemented with two-fold dilutions of antibiotic 2. Samples were analyzed by running on a denaturing 1% formaldehyde agarose gel and stained with ethidium bromide to visualize RNA. Intensities of the bands were quantified and compared to the control to determine the amount of transcription occurring in the presence of 2.

[7] = tested on: red blood cells; test: Hemolysis; assay type: cell-based, human; conditions: at 50 μg/mL
Experimental: Fresh heparinized human blood was washed three times by centrifugation at 1,200 g for 10 min in 100 mM PBS, pH 7.4. A 10% red-blood cell (RBC) suspension was prepared in PBS. Antibiotic 2 at 0.5, 5, and 50 μg/mL was added to aliquots of the 10% RBC suspension and incubated at 37° C. A positive control of 0.2% Triton was used. Samples were centrifuged at 1,200 g for 10 min and the supernatant measured for absorbance at 541 nm.

[8] = tested on: S. aureus NRS100; test: MIC, CLSI broth microdilution, S. aureus NRS100; assay type: cell-based, Staphylococcus aureus
Experimental: as §1

## N#Cc1ccc(/C=C/c2nc3ccccc3c(=O)n2-c2cccc(C(=O)O)c2)cc1.[Na] [Compound 2, Sodium (E)-3-(3-carboxyphenyl)-2-(4-cyanostyryl)quinazolin-4(3H)-one]
[1]; Staphylococcus aureus, VRS2
  MIC: 2 µg/mL
[1]; Table 2.1, S. aureus VRS2
  In vitro AB activity (MIC): 2 µg/mL
[2]; NRS70
  MIC: 2 µg/mL
[2]; NRS70, read-out: MIC NRS70
  MIC: 4 µg/mL
[2]; Table 2.1, S. aureus NRS70
  In vitro AB activity (MIC): 2 µg/mL
[3]
  fraction unbound at 6 h, 10 μM: 0.02
[4]
  IC50: 336 µM
[5]; NRS123
  MIC: 2 µg/mL
[5]; NRS123, read-out: MIC NRS123
  MIC: 4 µg/mL
[6]
  Inhibition of in vitro transcription: did not show any inhibition
[7]
  Hemolysis of red blood cells: < 1%
[8]; Staphylococcus aureus, NRS100
  MIC: 16 µg/mL
[8]; Table 2.1, S. aureus NRS100
  In vitro AB activity (MIC): 16 µg/mL
